Results: patent publication US20110306597A1, “Nicotinamide Derivatives” (priority 2008, published 2011)
pIC50: −log10 of the molar value.

Molecular target: human recombinant H-PGDS (Homo sapiens, UniProt O60760)
Assay: Fluorescence Intensity h-PGDS TBA Enzyme Assay
Format: biochemical
Conditions: 1:175,000 human recombinant H-PGDS, highest inhibitor concentration typically 1 μM
In short: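 Readout is PGH2 depletion: after a 42 s reaction with 5.0 μM PGH2 and 2.5 mM glutathione (pH 8.0 Tris, 10 min inhibitor preincubation), Fe(II) converts leftover PGH2 to MDA, which forms a fluorescent TBA complex. IC50s come from 11-point, 3-fold duplicate curves, 4-parameter fit.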

Chain of human recombinant H-PGDS (O60760 whole entry): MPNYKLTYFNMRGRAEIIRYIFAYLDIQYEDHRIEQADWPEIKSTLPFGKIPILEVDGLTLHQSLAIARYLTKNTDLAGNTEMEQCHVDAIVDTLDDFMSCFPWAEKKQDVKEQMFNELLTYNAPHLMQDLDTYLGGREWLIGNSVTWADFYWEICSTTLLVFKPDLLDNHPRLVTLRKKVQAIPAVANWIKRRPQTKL

pIC50	Structure (SMILES)
7.47	CS(=O)(=O)c1ccc(CNC(=O)c2ccc(-c3cccc(F)c3)nc2)cc1 [Example 420, 6-(3-Fluorophenyl)-N-[4-(methylsulfonyl)benzyl] nicotinamide]
7.47	CCCCN1CC(CNC(=O)c2ccc(-c3cccc(F)c3)nc2)OCC1=O (stereo not shown) [Example 70, N-[(4-Butyl-5-oxomorpholin-2-yl)methyl]-6-(3-fluorophenyl)nicotinamide]
8.73	Cc1ccccc1CNC(=O)c1ccc(-c2ccccc2)nc1 [Example 151, N-(2-Methylbenzyl)-6-phenylnicotinamide]
7.06	CCN(CC)CCCCNC(=O)c1ccc(-c2cccc(F)c2)nc1 [Example 102, N-[4-(Diethylamino)butyl]-6-(3-fluorophenyl)nicotinamide]
8.68	O=C(NCc1ccccc1F)c1ccc(-c2ccccc2)nc1 [Example 380, N-(2-Fluorobenzyl)-6-phenylnicotinamide]
8.54	O=C(NC1COC2(CCN(c3nc4ccccc4[nH]3)CC2)C1)c1ccc(-c2cccc(F)c2)nc1 (stereo not shown) [Example 150, N-[8-(1H-Benzimidazol-2-yl)-1-oxa-8-azaspiro[4.5]dec-3-yl]-6-(3-fluorophenyl)nicotinamide]
7.60	CCCOCCCNC(=O)c1ccc(-c2cc(F)cc(F)c2)nc1 [Example 569, 6-(3,5-Difluorophenyl)-N-(3-propoxypropyl)nicotinamide]
8.27	O=C(NC1CCCOC1)c1ccc(-c2cccc(F)c2)nc1 (stereo not shown) [Example 63, 6-(3-Fluorophenyl)-N-(tetrahydro-2H-pyran-3-yl)nicotinamide]
7.33	CSc1ccc(CNC(=O)c2ccc(-c3cccc(F)c3)nc2)cc1 [Example 412, 6-(3-Fluorophenyl)-N-[4-(methylthio)benzyl] nicotinamide]
6.38	CCCCNC(=O)c1ccc(-c2ccc(F)cc2)nc1 [Example 326, N-Butyl-6-(4-fluorophenyl)nicotinamide]
8.45	O=C(NC1CCCCNC1=O)c1ccc(-c2cccc(F)c2)nc1 (stereo not shown) [Example 136, 6-(3-Fluorophenyl)-N-(2-oxoazepan-3-yl)nicotinamide]
8.06	CCOC(=O)CC(C)NC(=O)c1ccc(-c2cccc(F)c2)nc1 (stereo not shown) [Example 157, Ethyl 3-({[6-(3-fluorophenyl)pyridin-3-yl]carbonyl}amino)butanoate]
7.23	O=C(NCc1nc(-c2ccccc2)no1)c1ccc(-c2cccc(F)c2)nc1 [Example 133, 6-(3-Fluorophenyl)-N-[(3-phenyl-1,2,4-oxadiazol-5-yl)methyl]nicotinamide]
7.51	CCn1cc(-c2nnc(CCNC(=O)c3ccc(-c4cccc(F)c4)nc3)o2)cn1 [Example 45, N-{2-[5-(1-Ethyl-1H-pyrazol-4-yl)-1,3,4-oxadiazol-2-yl]ethyl}-6-(3-fluorophenyl)nicotinamide]
7.64	O=C(NCc1ccc(-n2cncn2)cc1)c1ccc(-c2cccc(F)c2)nc1 [Example 180, 6-(3-Fluorophenyl)-N-[4-(1H-1,2,4-triazol-1-yl)benzyl]nicotinamide]
7.25	CCOC(=O)CC(NC(=O)c1ccc(-c2cccc(C)c2)nc1)c1ccc(Cl)cc1 (stereo not shown) [Example 221, Ethyl 3-(4-chlorophenyl)-3-({[6-(3-methylphenyl)pyridin-3-yl]carbonyl}amino)propanoate]
6.72	CCOC(=O)CC[C@H](NC(=O)c1ccc(-c2ccc(F)cc2)nc1)C(=O)OCC [Example 471, Diethyl N-{[6-(4-fluorophenyl)pyridin-3-yl]carbonyl}-L-glutamate]
7.05	COC(=O)[C@H](C)NC(=O)c1ccc(-c2cccc(C)c2)nc1 [Example 219, Methyl N-{[6-(3-methylphenyl)pyridin-3-yl]carbonyl}alaninate]
6.53	N#CC(NC(=O)c1ccc(-c2cccc(F)c2)nc1)C(=O)NCCN1CCOCC1 (stereo not shown) [Example 212, N-{1-Cyano-2-[(2-morpholin-4-ylethyl)amino]-2-oxoethyl}-6-(3-fluorophenyl)nicotinamide]
7.33	CN1CCC(CCNC(=O)c2ccc(-c3cccc(F)c3)nc2)CC1 [Example 175, 6-(3-Fluorophenyl)-N-[2-(1-methylpiperidin-4-yl)ethyl]nicotinamide]
8.03	O=C(NCc1nnc(-c2cccnc2)[nH]1)c1ccc(-c2cccc(F)c2)nc1 [Example 524, 6-(3-Fluorophenyl)-N-[(5-pyridin-3-yl-4H-1,2,4-triazol-3-yl)methyl]nicotinamide]
8.25	O=C(NCc1coc(-c2ccc(F)cc2)n1)c1ccc(-c2cccc(F)c2)nc1 [Example 535, 6-(3-Fluorophenyl)-N-{[2-(4-fluorophenyl)-1,3-oxazol-4-yl]methyl}nicotinamide]
7.35	O=C(N[C@@H](CO)c1ccccc1)c1ccc(-c2cccc(F)c2)nc1 [Example 78, 6-(3-Fluorophenyl)-N-[(1R)-2-hydroxy-1-phenylethyl] nicotinamide]

pIC50	Structure (SMILES)
8.21	CN1CCc2nc(N3CCCC(CNC(=O)c4ccc(-c5cccc(F)c5)nc4)C3)ncc2C1 (stereo not shown) [Example 89, 6-(3-Fluorophenyl)-N-{[1-(6-methyl-5,6,7,8-tetrahydropyrido[4,3-d]pyrimidin-2-yl)piperidin-3-yl]methyl}nicotinamide]
7.87	O=C(NCC1CC2(CCN(c3cnccn3)CC2)CO1)c1ccc(-c2cccc(F)c2)nc1 (stereo not shown) [Example 54, 6-(3-Fluorophenyl)-N-[(8-pyrazin-2-yl-2-oxa-8-azaspiro[4.5]dec-3-yl)methyl]nicotinamide]
≤ 6.00	O=C(NCc1ccc(Cl)c(Cl)c1)c1ccc(-c2ccc(F)cc2)nc1 [Example 475, N-(3,4-Dichlorobenzyl)-6-(4-fluorophenyl)nicotinamide]
≤ 6.00	CCOC(=O)CC(NC(=O)c1ccc(-c2ccc(F)cc2)nc1)c1ccc(OC)cc1 (stereo not shown) [Example 506, Ethyl 3-({[6-(4-fluorophenyl)pyridin-3-yl]carbonyl}amino)-3-(4-methoxyphenyl)propanoate]
7.33	CS(=O)(=O)CCNC(=O)c1ccc(-c2cccc(F)c2)nc1 [Example 28, 6-(3-Fluorophenyl)-N-[2-(methylsulfonyl)ethyl] nicotinamide]
7.48	O=C(NCCN1CCN(Cc2ccccc2)CC1)c1ccc(-c2cccc(F)c2)nc1 [Example 176, N-[2-(4-Benzylpiperazin-1-yl)ethyl]-6-(3-fluorophenyl)nicotinamide]
8.23	CCOC(=O)C(CNC(=O)c1ccc(-c2cccc(F)c2)nc1)C1CCCC1 (stereo not shown) [Example 155, Ethyl 2-cyclopentyl-3-({[6-(3-fluorophenyl)pyridin-3-yl]carbonyl}amino)propanoate]
7.57	O=C(NCCc1nnc(C2CC2)o1)c1ccc(-c2cccc(F)c2)nc1 [Example 207, N-[2-(5-Cyclopropyl-1,3,4-oxadiazol-2-yl)ethyl]-6-(3-fluorophenyl)nicotinamide]
6.44	CC(C)[C@H](N)C(=O)NC(=O)c1ccc(-c2ccccc2)nc1 [Example 512, 6-Phenyl-N-L-valylnicotinamide]
6.24	COc1cccc(-c2ccc(C(=O)NC(C)c3ccncn3)cn2)c1 (stereo not shown) [Example 299, 6-(3-Methoxyphenyl)-N-(1-pyrimidin-4-ylethyl)nicotinamide]
7.13	Cc1cccc(-c2ccc(C(=O)NC(=O)CC(N)C3CC3)cn2)c1 (stereo not shown) [Example 248, N-(3-Amino-3-cyclopropylpropanoyl)-6-(3-methylphenyl)nicotinamide]
7.99	O=C(NCC(O)c1ccccc1F)c1ccc(-c2cccc(F)c2)nc1 (stereo not shown) [Example 79, 6-(3-Fluorophenyl)-N-[2-(2-fluorophenyl)-2-hydroxyethyl]nicotinamide]
7.70	Cc1cnc(CN2C(=O)CCC2CCNC(=O)c2ccc(-c3cccc(F)c3)nc2)cn1 (stereo not shown) [Example 56, 6-(3-Fluorophenyl)-N-(2-{1-[(5-methylpyrazin-2-yl)methyl]-5-oxopyrrolidin-2-yl}ethyl)nicotinamide]
≤ 6.00	O=C(NCCN1CCCCC1)c1ccc(-c2ccc(F)cc2)nc1 [Example 324, 6-(4-Fluorophenyl)-N-(2-piperidin-1-ylethyl)nicotinamide]
6.44	CC(NC(=O)c1ccc(-c2cccc(F)c2)nc1)c1ccncn1 (stereo not shown) [Example 443, 6-(3-Fluorophenyl)-N-(1-pyrimidin-4-ylethyl)nicotinamide]
8.10	Cc1cccc(-c2ccc(C(=O)NCCCNc3ccccn3)cn2)c1 [Example 231, 6-(3-Methylphenyl)-N-[3-(pyridin-2-ylamino)propyl]nicotinamide]
6.41	CCOC(=O)C1(NC(=O)c2ccc(-c3cccc(F)c3)nc2)CCOCC1 [Example 159, Ethyl 4-({[6-(3-fluorophenyl)pyridin-3-yl]carbonyl}amino)tetrahydro-2H-pyran-4-carboxylate]
6.49	O=C(NCc1ccccc1)c1ccc(-c2ccc(F)cc2)nc1 [Example 499, N-Benzyl-6-(4-fluorophenyl)nicotinamide]
6.80	O=C(NCCN1CCCC1)c1ccc(-c2cccc(F)c2)nc1 [Example 422, 6-(3-Fluorophenyl)-N-(2-pyrrolidin-1-ylethyl)nicotinamide]
6.95	CCC(C)NC(=O)c1ccc(-c2cccc(F)c2)nc1 (stereo not shown) [Example 426, N-sec-Butyl-6-(3-fluorophenyl)nicotinamide]
7.94	Cc1cccc(-c2ccc(C(=O)NCc3cccc(S(C)(=O)=O)c3)cn2)c1 [Example 245, 6-(3-Methylphenyl)-N-[3-(methylsulfonyl)benzyl] nicotinamide]
7.52	CCOC(=O)Cc1ccc(CNC(=O)c2ccc(-c3cccc(F)c3)nc2)cc1 [Example 205, Ethyl {4-[({[6-(3-fluorophenyl)pyridin-3-yl]carbonyl}amino)methyl]phenyl}acetate]
6.64	Cc1cccc(-c2ccc(C(=O)NCC(=O)N(C)C)cn2)c1 [Example 244, N-[2-(Dimethylamino)-2-oxoethyl]-6-(3-methylphenyl)nicotinamide]
